Each structure is given as a SMILES string.

One experiment can be described thus: Raw material test against sweat odour (masking of malodour standard, assessor panel).
Conditions: not given
Take `C/C=C/C(=O)OC(C)C1CCCCC1` (stereo not shown) [CROTONIC ACID-1-CYCLOHEXYL ETHYL ESTER]: the “Increase In intensity” value came to 0.8 and the Odour reduction value came to 3.7.

The compound `CC1CC(C)(c2ccccc2)OC(C)O1` (stereo not shown) [reference compound] gave an Increase in intensity of −0.7 and a Malodour reduction value of 1.1.

Still in this experiment, the particulars now being: Table 1; 1 μl fragrance + 5 μl 3-mercapto-3-methyl-hexan-1-ol (0.1% in DPG) in 7 l air, 15 h at approx. 20° C.; scale 1 to 9, malodour standard mixture = 6; mean of at least 8 assessors.
With `CC(C)=CCOC(=O)c1ccccc1O` [SALICYLIC ACID PRENYL ESTER], the “Increase In intensity” value was 0.2 and the Odour reduction value came to 3.6.

For `COC(=O)c1ccc(O)c(C)c1O` [2,4-DIHYDROXY-3-METHYLBENZOIC ACID METHYL ESTER], the “Increase In intensity” value is listed as 0.0 and the Odour reduction value is recorded as 3.0.

As for `CC1COCc2cc3c(cc21)C(C)(C)C(C)C3(C)C` (stereo not shown), the “Increase In intensity” value is −2.3 and the Odour reduction value is given as 4.3.

Take `C=CCOC(=O)COC1CCCCC1` [(CYCLOHEXYLOXY)-ACETIC ACID-2-PROPENYL ESTER]: the “Increase In intensity” value is listed as −0.5 and the Odour reduction value is given as 4.3.

As to `C=CCOC(=O)CCCCC` [ALLYL CAPRONATE], the “Increase In intensity” value turned out to be 1.0 and the Odour reduction value came out at 3.0.

Turning to `CCCCCC1CCC(=O)O1` (stereo not shown) [5-PENTYLDIHYDROFURAN-2-ONE], the “Increase In intensity” value is given as −0.8 and the Odour reduction value came to 4.1.

For `CCCCCCCCCC/C=C\C#N` [(Z)-2-TRIDECENE NITRILE], the “Increase In intensity” value was determined as 1.6 and the Odour reduction value worked out at 3.8.

With `CC(=O)OC(C)(C)C1CC=C(C)CC1` (stereo not drawn) [ACETIC ACID-ALPHA-TERPINYL ESTER], the “Increase In intensity” value is given as −0.3 and the Odour reduction value amounted to 4.0.

As for `Cc1cccc(CC(C)(C)CO)c1`, the “Increase In intensity” value worked out at 1.2 and the Odour reduction value is recorded as 4.4.

As for `CCOC(C=C(C)CCC=C(C)C)OCC`, the “Increase In intensity” value is given as −0.7 and the Odour reduction value was 4.3.

As for `CCC/C=C/C=O` [(E)-2-HEXENAL], the “Increase In intensity” value was −0.2 and the Odour reduction value is recorded as 3.1.

As for `COc1ccc(C=O)cc1` [4-METHOXYBENZALDEHYDE], the “Increase In intensity” value turned out to be 1.0 and the Odour reduction value came out at 4.7.

On to `CCCCCC1COCCC1OC(C)=O` (stereo not shown) [TETRAHYDRO-3-PENTYL-PYRAN-4-OL ACETATE], for which the “Increase In intensity” value was determined as 1.5 and the Odour reduction value was 4.5.

Turning to `CC1OC(C)C2Cc3ccccc3C2O1` (stereo not shown), the “Increase In intensity” value turned out to be 1.1 and the Odour reduction value was found to be 4.1.

As for `COC1C=C2C(C)(C)C3CCC2(C3)C(C)(C)C1` (stereo not shown), the “Increase In intensity” value worked out at 0.5 and the Odour reduction value was found to be 4.3.

Consider `CC(C)COC(=O)C=Cc1ccccc1` [ISOBUTYL CINNAMATE], for which the “Increase In intensity” value was 0.8 and the Odour reduction value was determined as 3.1.

With `CCCCCCC1OC(=O)CC1C` (mixture of isomers) [(E/Z) 5-HEXYLDIHYDRO-4-METHYL-2-FURANONE], the “Increase In intensity” value is reported as 1.2 and the Odour reduction value turned out to be 4.2.

Turning to `C=CCOC(=O)CCCCCC` [ALLYL HEPTYLATE], the “Increase In intensity” value is given as −0.5 and the Odour reduction value was determined as 3.0.

For `CC(=O)C(C)=C(C)C(C)C(C)(C)C` (stereo not shown), the “Increase In intensity” value came out at 1.6 and the Odour reduction value stood at 3.2.

With `C=CCc1ccc(O)c(OC)c1` [EUGENOL], the “Increase In intensity” value turned out to be 0.7 and the Odour reduction value was determined as 6.0.

For `COC(=O)C1CC2(C)C=CC1(C(C)C)CC2` (stereo not shown) [1-ISOPROPYL-4-METHYL-BICYCLO[2.2.2]OCT-5-ENE-2-CARBOXYLIC ACID METHYL ESTER], the “Increase In intensity” value is on record as −0.8 and the Odour reduction value is on record as 4.2.

Take `C/C=C/C(=O)OC(C)CC(C)C` (stereo not shown) [CROTONIC ACID-4-METHYL-2-[…]]: the “Increase In intensity” value is given as −0.5 and the Odour reduction value is listed as 3.5.

As to `CC=CC(=O)C1C(C)=CCCC1(C)C` (stereo in doubt) [ALPHA-DAMASCONE], the “Increase In intensity” value is −2.0 and the Odour reduction value was 4.1.

Consider `CC(C)=CCC(C)(C)C1OCC=CCO1`, for which the “Increase In intensity” value amounted to 0.0 and the Odour reduction value came out at 3.7.

For the compound `CC(=O)OC(C)c1ccccc1` (stereo not shown) [ACETIC ACID-1-PHENYLETHYL ESTER], the “Increase In intensity” value was −0.4 and the Odour reduction value is on record as 4.0.

Turning to `CC1=CCC=C(C)C(O)CCC=C(C)CC1` (stereo not shown), the “Increase In intensity” value was determined as 1.5 and the Odour reduction value was 4.5.

Turning to `CC(C)=CCCC(C)CC#N` (stereo not shown) [3,7-DIMETHYL-6-OCTENE NITRILE], the “Increase In intensity” value came out at 0.5 and the Odour reduction value came to 4.5.

With `CCCCCCCCCC=O` [DECANAL], the “Increase In intensity” value stood at 0.2 and the Odour reduction value turned out to be 3.0.

Turning to `CCCCCCO` [1-HEXANOL], the “Increase In intensity” value is listed as 1.6 and the Odour reduction value is recorded as 3.6.

With `CCc1ccc(CC(C)(C)C=O)cc1`, the “Increase In intensity” value is listed as −1.9 and the Odour reduction value came out at 3.7.

Consider `CC(CC#N)CCc1ccccc1` (stereo not shown) [2-METHYL-4-PHENYL BUTYL CYANIDE], for which the “Increase In intensity” value worked out at 0.2 and the Odour reduction value was 5.3.

Consider `C=CC(C)(O)CCC=C(C)CC` (stereo not shown), for which the “Increase In intensity” value is recorded as 1.0 and the Odour reduction value is given as 3.1.

In the case of `O=C1CCCCCCCCCCCCCCO1` [1.15-PENTADECANOLIDE], the “Increase In intensity” value came to 1.1 and the Odour reduction value is 3.6.

For `CCCCCCCC1CCCC1=O` (stereo not shown) [2-HEPTYL-CYCLOPENTANONE], the “Increase In intensity” value was found to be 1.3 and the Odour reduction value is given as 4.5.

In the case of `CCOC(=O)OC1C(C)CCC(C)C1C` (stereo not shown) [CARBONIC ACID-ETHYL-2.3.6-TRIMETHYL CYCLOHEXYL ESTER], the “Increase In intensity” value came out at 1.0 and the Odour reduction value is reported as 4.6.

Consider `CC(=O)OCC(C)CC(C)(C)c1ccccc1` (stereo not shown) [ACETIC ACID-2,4-DIMETHYL-4-PHENYLPENTYL ESTER], for which the “Increase In intensity” value came to 1.6 and the Odour reduction value is listed as 3.4.

As for `CC/C=C\CCOCCC#N` [(Z)-3-(3-HEXENYLOXY)-PROPANENITRILE], the “Increase In intensity” value was found to be 1.5 and the Odour reduction value is 5.0.

For `CCCC(C)C(=O)OCC` (stereo not shown) [2-METHYL-PENTANOIC ACID ETHYL ESTER], the “Increase In intensity” value was determined as 0.2 and the Odour reduction value was 4.4.

In the case of `CC(C)CCOC(=O)c1ccccc1O` [SALICYLIC ACID 3-METHYLBUTYL ESTER], the “Increase In intensity” value was found to be 1.0 and the Odour reduction value is reported as 3.3.

As to `CCCCCCCCCC(C)C=O` (stereo not shown) [2-METHYLUNDECANAL], the “Increase In intensity” value turned out to be 0.7 and the Odour reduction value was 3.2.

As to `COC1(OC)CCCCCCCCCCC1` [CYCLODODECANONE DIMETHYL KETAL], the “Increase In intensity” value is 1.5 and the Odour reduction value is given as 4.0.

On to `CC(=O)OCCc1ccccc1` [ACETIC ACID-2-PHENYLETHYL ESTER], for which the “Increase In intensity” value was 1.0 and the Odour reduction value came out at 4.0.

The same experiment, now with this note: Table 2 (raw materials without adequate malodour-reducing action); 1 μl fragrance + 5 μl 3-mercapto-3-methyl-hexan-1-ol (0.1% in DPG) in 7 l air, 15 h; scale 1 to 9, standard = 6.
In the case of `CCCCCC1COCCC1OC(C)=O` (stereo not shown) [TETRAHYDRO-3-PENTYL-PYRAN-4-OL ACETATE], the Increase in intensity turned out to be 1.0 and the Malodour reduction value came out at 2.0.

For the compound `OCCCc1ccccc1` [PHENYL PROPYL ALCOHOL, reference compound], the Increase in intensity was found to be 1.0 and the Malodour reduction value is 0.0.

`CCCCCCCCCCCC=O` [DODECANAL, reference compound]: the Increase in intensity worked out at 2.0 and the Malodour reduction value was determined as 2.0.

For the compound `CCCCCC(C=O)=Cc1ccccc1` [reference compound], the Increase in intensity was determined as 1.0 and the Malodour reduction value is on record as 0.0.

Take `CCCCCCCC=O` [OCTANAL, reference compound]: the Increase in intensity amounted to 0.9 and the Malodour reduction value is 2.4.

Turning to `COc1cc(C=O)ccc1O` [VANILLIN, reference compound], the Increase in intensity is listed as 1.0 and the Malodour reduction value is listed as 0.0.

Consider `CC(C)=CCCC(C)CCO` (stereo not shown) [CITRONELLOL, reference compound], for which the Increase in intensity is listed as −0.2 and the Malodour reduction value was 2.2.

As for `CC=Cc1ccc(OC)cc1` [1-METHOXY-4-PROPENYL BENZENE, reference compound], the Increase in intensity is 2.0 and the Malodour reduction value was determined as 2.0.

The same experiment, now with this note: Table 3 (adequate malodour-reducing action but significant increase in intensity); 1 μl fragrance + 5 μl 3-mercapto-3-methyl-hexan-1-ol (0.1% in DPG) in 7 l air, 15 h; scale 1 to 9, standard = 6.
Take `CC12CCC(CC1)C(C)(C)O2` [1,8-CINEOL, reference compound]: the Increase in intensity amounted to 2.4 and the Malodour-reduction value is 5.1.

For `CC(=O)/C(C)=C/C1C(C)=CCCC1(C)C` (stereo not shown) [GAMMA-METHYLICONE, reference compound], the Increase in intensity was 2.1 and the Malodour-reduction value was determined as 4.0.

For the compound `CCCCCOC(=O)c1ccccc1O` [AMYL SALICYLATE, reference compound], the Increase in intensity is listed as 2.4 and the Malodour-reduction value came to 3.6.

Regarding `CCC(C)CCCC(C)(C)O` (stereo not shown) [TETRAHYDROMYRCENOL, reference compound], the Increase in intensity worked out at 2.2 and the Malodour-reduction value is reported as 4.0.

Regarding `CC(=O)OC/C=C(\C)CCC=C(C)C` [GERANYL ACETATE, reference compound], the Increase in intensity came to 2.2 and the Malodour-reduction value was 3.0.

With `CC(C)CCCC(C)CCO` (stereo not shown) [3,7-DIMETHYL OCTANOL, reference compound], the Increase in intensity came to 2.2 and the Malodour-reduction value was 4.0.

Still in this experiment, the particulars now being: prior-art fragrances examined by the applicant.
As for `CC(C)CCCC(C)CCO` (stereo not shown) [3,7-DIMETHYL OCTANOL, reference compound], the “intrinsic odour / perfumistic impression (in words)” value was “strong perfumistic impression” and the “reduction in the bad odour based on 3-mercapto-3-methyl-hexan-1-ol (in words)” value is on record as “leads to a malodour reduction”.

The values above are taken from US20070298994A1, “Use of 3-Mercapto-3-Methyl-Hexan-1-Ol for Use as Malodour Standard” (SYMRISE GMBH & CO. KG, priority 2004, published 2007).
